The source of these data is patent US20100093696A1, “2-AMINO PYRIMIDINE COMPOUNDS” (Pfizer Inc., priority 2007, published 2010).

Where a name gives a salt, the structure may show the parent alone.

The assay deals with HSP-90 (Homo sapiens, UniProt P07900). Put plainly: HSP-90 SPA (scintillation proximity assay) competition binding assay, tritiated Compound A radioligand (G2). Conditions: read-out: (G2): % inhibition. Background: In a scintillation proximity assay essentially only radioactivity close to the scintillant gives light.
Regarding `CCOC(=O)N1Cc2nc(N)nc(Oc3cc(C)c(Cl)c(C)c3)c2C1` [Example 25, ethyl 2-amino-4-(4-chloro-35-dimethylphenoxy)-5,7-dihydro-6H-pyrrolo[34-d]pyrimidine-6-carboxylate hydrochloride], the inhibition (as a rule, the change of the read-out against control, counted positive when it falls) at 10 µM came out at 0%. Consider `CCOC(=O)N1Cc2nc(N)nc(Oc3ccc(Cl)cc3Br)c2C1` [Example 23, ethyl 2-amino-4-(2-bromo-4-chlorophenoxy)-5,7-dihydro-6H-pyrrolo[34-d]pyrimidine-6-carboxylate], for which the inhibition at 10 µM stood at 0%. Consider `CCOC(=O)N1Cc2nc(N)nc(-n3ccc4ccc(F)cc43)c2C1` [Example 46, ethyl 2-amino-4-(6-fluoro-1H-indol-1-yl)-5,7-dihydro-6H-pyrrolo[3,4-d]pyrimidine-6-carboxylate], for which the inhibition at 10 µM worked out at 0%. For `CCOC(=O)N1Cc2nc(N)nc(Oc3ccc(Cl)cc3OC)c2C1` [Example 27, ethyl 2-amino-4-(4-chloro-2-methoxyphenoxy)-5,7-dihydro-6H-pyrrolo[3,4-d]pyrimidine-6-carboxylate], the inhibition at 10 µM was found to be 0%.
